The source of these data is ChEMBL document CHEMBL5226317, “Camptothecin's journey from discovery to WHO Essential Medicine: Fifty years of promise” (Eur J Med Chem, 2021).

Counter-ions that a name gives are not always drawn.

The EC50 is the concentration giving half of the maximal effect. A low value points to higher potency in that assay. Broadly, the IC50 is the midpoint of a concentration-inhibition curve.

What all share (assay type): functional, cell-based
Assay [1] relates to NSCLC. Put plainly: Cytotoxicity against human NSCLC cells.
Assay [2] relates to A549. Put plainly: Cytotoxicity against human A549 cells incubated for 48 hrs by SpectraMax M5 microplate reader analysis. The conditions noted are these: A549, 48 h.
The test system of assay [3] is A549. Put plainly: Cytotoxicity against human A549 cells.
Assay [4] deals with HT-29. Put plainly: Cytotoxicity against human HT-29 cells.
Assay [5] has as its system HeLa. Put plainly: Antiproliferative activity against human HeLa cells incubated for 72 hrs.
Assay [6] concerns NCI-H460. Put plainly: Antiproliferative activity against human NCI-H460 cells incubated for 72 hrs. The conditions noted are these: NCI-H460, 72 h.
In assay [7] the test system is A-431. Put plainly: Antiproliferative activity against human A-431 cells incubated for 72 hrs. The conditions noted are these: A-431, 72 h.
Assay [8] deals with MSTO-211H. Put plainly: Antiproliferative activity against human MSTO-211H cells incubated for 72 hrs.
Assay [9] deals with A549. Put plainly: Anticancer activity against human A549 cells incubated for 48 hrs by MTT assay. The following applies: A549, 48 h. On the technique in general: Formazan colour is commonly taken as a measure of viable cells.
The test system of assay [10] is DU-145. Put plainly: Anticancer activity against human DU-145 cells incubated for 48 hrs by MTT assay. The conditions noted are these: DU-145, 48 h.
The subject of assay [11] is HL-60. Put plainly: Anticancer activity against human HL-60 cells incubated for 48 hrs by MTT assay. The following applies: HL-60, 48 h.
Assay [12] deals with H322. Put plainly: Anticancer activity against human H322 cells incubated for 48 hrs by MTT assay. The following applies: NCI-H322, 48 h.
Assay [13] relates to Jurkat. Put plainly: Anticancer activity against human Jurkat cells incubated for 48 hrs by MTT assay.
Assay [14] concerns HT-29. Put plainly: Anticancer activity against human HT-29 cells incubated for 48 hrs by MTT assay. The following applies: HT-29, 48 h.
Assay [15] concerns HCT-116. Put plainly: Anticancer activity against human HCT-116 cells incubated for 48 hrs by MTT assay. The following applies: HCT-116, 48 h.
Assay [16] relates to HepG2. Put plainly: Anticancer activity against human HepG2 cells incubated for 48 hrs by MTT assay. The following applies: HepG2, 48 h.
Assay [17] deals with HCT-8. Put plainly: Cytotoxicity against human HCT-8 cells.
Assay [18] has as its system KB. Put plainly: Antiproliferative activity against human KB cells incubated for 48 hrs by CCK-8 assay.
Assay [19] concerns HCT-8. Put plainly: Antiproliferative activity against human HCT-8 cells incubated for 48 hrs by CCK-8 assay. The conditions noted are these: HCT-8, 48 h.
Assay [20] deals with HepG2. Put plainly: Antiproliferative activity against human HepG2 cells incubated for 48 hrs by CCK-8 assay. The following applies: HepG2, 48 h.
Assay [21] relates to SGC-7901. Put plainly: Antiproliferative activity against human SGC-7901 cells incubated for 48 hrs by CCK-8 assay. The conditions noted are these: SGC-7901, 48 h.
Assay [22] in a line: Antiproliferative activity against human KB-VIN cells measured after 72 hrs by colorimetric assay. The following applies: KBVIN.
The test system of assay [23] is A549. Put plainly: Antiproliferative activity against human A549 cells measured after 72 hrs by colorimetric assay. The conditions noted are these: A549, 72 h.
Assay [24] deals with KB. Put plainly: Antiproliferative activity against human KB cells measured after 72 hrs by colorimetric assay.
For assay [25], the system named is NCI-H520. Put plainly: Cytotoxicity against human NCI-H520 cells incubated for 48 hrs by MTT assay. The following applies: NCI-H520, 48 h.
The subject of assay [26] is A549. Put plainly: Cytotoxicity against human A549 cells incubated for 48 hrs by MTT assay. The following applies: A549, 48 h.
The nature of assay [27]: Cytotoxicity against human NCI-H196 cells incubated for 48 hrs by MTT assay. The conditions noted are these: NCI-H196, 48 h.
Assay [28] has as its system NCI-H1299. Put plainly: Cytotoxicity against human NCI-H1299 cells incubated for 48 hrs by MTT assay. The following applies: NCI-H1299, 48 h.
In assay [29] the test system is SBC-3. Put plainly: Cytotoxicity against human SBC-3 cells incubated for 48 hrs by MTT assay. The following applies: SBC-3, 48 h.
In assay [30] the test system is SBC-5. Put plainly: Cytotoxicity against human SBC-5 cells incubated for 48 hrs by MTT assay. The conditions noted are these: SBC-5, 48 h.
The nature of assay [31]: Anticancer activity against human SPCA1 cells incubated for 72 hrs by MTT assay. The following applies: SPCA1, 72 h.
In assay [32] the test system is K562. Put plainly: Anticancer activity against human K562 cells incubated for 72 hrs by MTT assay. The conditions noted are these: K562, 72 h.
Assay [33] concerns SK-OV-3. Put plainly: Anticancer activity against human SK-OV-3 cells incubated for 72 hrs by MTT assay. The conditions noted are these: SK-OV-3, 72 h.
Assay [34] deals with SW 1116. Put plainly: Anticancer activity against human SW 1116 cells incubated for 72 hrs by MTT assay. The following applies: SW 1116, 72 h.
For assay [35], the system named is U-251. Put plainly: Anticancer activity against human U-251 cells incubated for 72 hrs by MTT assay. The conditions noted are these: U-251, 72 h.
The subject of assay [36] is MDA-MB-231. Put plainly: Antiproliferative activity against human MDA-MB-231 cells.
Assay [37] has as its system A549. Put plainly: Antiproliferative activity against human A549 cells.
Assay [38] deals with KB. Put plainly: Antiproliferative activity against human KB cells.
The test system of assay [39] is MCF7. Put plainly: Antiproliferative activity against human MCF7 cells.
The nature of assay [40]: Antiproliferative activity against human KB-VIN cells assessed as reduction in cell viability. The conditions noted are these: KBVIN.
Assay [41] can be described thus: Antiproliferative activity against human KB-VIN cells. The conditions noted are these: KBVIN.

Regarding `CC[C@@]1(O)C(=O)OCc2c1cc1n(c2=O)Cc2cc3cc4c(cc3nc2-1)OCO4`, the 50% effective concentration (EC50) in assay [1] amounted to 0.001 µM. Also, the IC50 in assay [2] came out at 0.083 µM.
As for `CC[C@@]1(OC(=O)CCC(=O)O[C@@H]2O[C@@H](C)[C@H](OC(C)=O)[C@@H](OC(C)=O)[C@H]2OC(C)=O)C(=O)OCc2c1cc1n(c2=O)Cc2cc3cc4c(cc3nc2-1)OCO4`, 0.083 µM corresponded to half-maximal inhibition in [2] (IC50).
Regarding `CCc1c2c(nc3ccc(OC)cc13)-c1cc([C@@](O)(CC)C(=O)NCCCN3CCOCC3)c(CO)c(=O)n1C2`, the half-inhibitory concentration (IC50) in [3] and in assay [4] was 0.02 µM throughout.
For the compound `CC[C@@]1(O)C(=O)OCc2c1cc1n(c2=O)Cc2c-1nc1ccccc1c2CSSCc1c2c(nc3ccccc13)-c1cc3c(c(=O)n1C2)COC(=O)[C@]3(O)CC`, the IC50 was 0.009 µM in [5]; 0.006 µM in assay [6]; 0.021 µM in assay [7]; 0.0022 µM in assay [8] (Homo sapiens, MSTO-211H, 72 h); 0.002 µM in [8] (msto-211h).
Regarding `CC[C@@]1(O)C(=O)OCc2c1cc1n(c2=O)Cc2cc3cc(OCC(=O)OC(C)(C)C)ccc3nc2-1`, the IC50 in assay [9] was 0.06 µM; in assay [10] it was 0.06 µM; in assay [11], 0.04 µM; in assay [12], 0.46 µM; in [13], 0.04 µM; in assay [14], 0.07 µM. Moreover, the 50% inhibitory concentration (IC50) in [15] was found to be 0.07 µM; in assay [16], 0.16 µM.
As for `CC[C@@]1(O)C(=O)OCc2c1cc1n(c2=O)Cc2cc3c(/C=C(\C)C(=O)OC)c(O)ccc3nc2-1`, the half-maximal inhibitory concentration (IC50) in assay [17] came out at 0.03 µM; in assay [18] it was 0.73 µM; in assay [19], 0.03 µM; in assay [20], 0.176 µM; in assay [21], 0.262 µM.
For the compound `CC[C@@]1(O)C(=O)OCc2c1cc1n(c2=O)Cc2c-1nc1ccccc1c2CS`, the IC50 in assay [5] came to 0.008 µM; in assay [6] it was 0.027 µM; in assay [7], 0.11 µM; in assay [8] (Homo sapiens, MSTO-211H, 72 h), 0.00185 µM; in assay [8] (msto-211h), 0.0018 µM.
As for `CCc1c2c(nc3ccccc13)-c1cc3c(c(=O)n1C2)COC(=O)[C@]3(CC)OC(=O)CN/C(Cc1ccc(OC)cc1)=N\S(=O)(=O)c1ccc(C)cc1`, the 50% inhibitory concentration (IC50) amounted to 0.026 µM in assay [22], 0.0314 µM in [23] and 0.142 µM in assay [24].
On to `CC[C@@](O)(C(=O)NCCN1CCOCC1)c1cc2n(c(=O)c1CO)Cc1c-2nc2ccccc2c1-c1ccccc1`, for which the IC50 in assay [3] and in assay [4] was 0.1 µM in each case.
As for `CC[C@]1(OC(=O)CN/C(Cc2ccc(OC)cc2)=N\S(=O)(=O)c2ccc(C)cc2)C(=O)OCc2c1cc1n(c2=O)Cc2cc3ccccc3nc2-1`, the results for the IC50 in assay [22], in assay [23] and in assay [24] were 0.026 µM, 0.0314 µM and 0.142 µM, respectively.
`CCc1c2c(nc3ccc(OCc4cn(C(COC(CO)CO)COC(CO)CO)nn4)cc13)-c1cc3c(c(=O)n1C2)COC(=O)[C@@]3(O)CC`: the IC50 was 1.5 µM in assay [25]; 23 µM in [26]; 510 µM in [27]; 1000 µM in assay [28]; 1.7 µM in assay [29]; 4.8 µM in assay [30].
Turning to `CCc1c2c(nc3ccc(OC(=O)NC(CC(C)C)C(=O)O)cc13)-c1cc3c(c(=O)n1C2)COC(=O)[C@]3(O)CC` (stereo partly drawn), the half-inhibitory concentration (IC50) in assay [31] amounted to 0.385 µM; in assay [32] it was 1.62 µM; in assay [33], 0.001 µM; in assay [34], 0.091 µM; in assay [35] it was 1.7 µM.
For the compound `CC[C@@](O)(C(=O)NCCCN1CCOCC1)c1cc2n(c(=O)c1CO)Cc1c-2nc2ccccc2c1-c1ccccc1`, the 50% inhibitory concentration (IC50) in assay [3] and in [4] was 0.01 µM throughout.
For `CC[C@@]1(O)C(=O)OCc2c1cc1n(c2=O)Cc2c-1nc1ccccc1c2CN1CCN(C(=S)Nc2cccc3ccccc23)CC1`, the 50% inhibitory concentration (IC50) in [36] was determined as 0.588 µM; in assay [37], 0.059 µM; in assay [38], 0.089 µM; in [39], 0.789 µM; in assay [40], 0.275 µM; in assay [41], 0.275 µM.
Take `CC[C@@]1(O)C(=O)OCc2c1cc1n(c2=O)Cc2cc3ccccc3nc2-1` [CAMPTOTHECIN]: in assay [13], the midpoint of inhibition, the IC50, lay at 0.1 µM.
With `CCc1c2c(nc3ccc(OC(=O)N4CCC(N5CCCCC5)CC4)cc13)-c1cc3c(c(=O)n1C2)COC(=O)[C@]3(O)CC` [IRINOTECAN], in assay [2], the half-inhibitory concentration (IC50) was found to be 9.14 µM.
`CC[C@@]1(O)C(=O)OCc2c1cc1n(c2=O)Cc2cc3c(CN(C)C)c(O)ccc3nc2-1` [TOPOTECAN HYDROCHLORIDE] displayed a half-maximal inhibitory concentration (IC50) in assay [41] of 0.511 µM.
